Reference: paper PMC5218480 (PLoS ONE, 2017)

Test system: MV-4-11 cells
Assay: Gene expression microarray analysis (Affymetrix PrimeView) and GSEA
Format: cell-based, human
Design: RFU PODN (11730768_x_at) / Fold change /veh PODN (11730768_x_at) / RFU LINC00158 (11744669_a_at) / Fold change /veh LINC00158 (11744669_a_at) / RFU DUSP10 (11751237_a_at) / Fold change /veh DUSP10 (11751237_a_at) / RFU ID3 (11757404_x_at) / Fold change /veh ID3 (11757404_x_at) / RFU PLEKHG5 (11737974_s_at) / Fold change /veh PLEKHG5 (11737974_s_at) / RFU LRRC4B (11730491_at) / Fold change /veh LRRC4B (11730491_at) / RFU GIMAP4 (11747438_a_at) / Fold change /veh GIMAP4 (11747438_a_at) / RFU KRT8 (11758183_x_at) / Fold change /veh KRT8 (11758183_x_at) / RFU CNN1 (11734310_a_at) / Fold change /veh CNN1 (11734310_a_at) / RFU VPS37D (11726825_at) / Fold change /veh VPS37D (11726825_at) / RFU C10orf10 (11716522_x_at) / Fold change /veh C10orf10 (11716522_x_at) / RFU KIR2DL2 /// KIR2DL4 /// KIR2DL5A /// KIR2DL5B /// KIR2DS1 /// KIR2DS2 /// KIR2DS3 /// KIR2DS4 /// KIR3DL3 /// KIR3DL3 /// KIR3DS1 (11738374_at) / Fold change /veh KIR2DL2 /// KIR2DL4 /// KIR2DL5A /// KIR2DL5B /// KIR2DS1 /// KIR2DS2 /// KIR2DS3 /// KIR2DS4 /// KIR3DL3 /// KIR3DL3 /// KIR3DS1 (11738374_at) / RFU C1QL1 (11718748_at) / Fold change /veh C1QL1 (11718748_at) / RFU TMPRSS4 (11747572_a_at) / Fold change /veh TMPRSS4 (11747572_a_at) / RFU HAMP (11756126_x_at) / Fold change /veh HAMP (11756126_x_at) / RFU RNFT2 (11725882_a_at) / Fold change /veh RNFT2 (11725882_a_at) / RFU NR4A2 (11747474_a_at) / Fold change /veh NR4A2 (11747474_a_at) / RFU ABCC12 (11746883_a_at) / Fold change /veh ABCC12 (11746883_a_at) / RFU TMEM136 (11760407_x_at) / Fold change /veh TMEM136 (11760407_x_at) / RFU CLDN22 /// WWC2 (11732394_at) / Fold change /veh CLDN22 /// WWC2 (11732394_at) / RFU HLA-DPB1 (11760878_x_at) / Fold change /veh HLA-DPB1 (11760878_x_at) / RFU SPINT1 (11716480_a_at) / Fold change /veh SPINT1 (11716480_a_at) / RFU GAP43 (11754022_s_at) / Fold change /veh GAP43 (11754022_s_at) / RFU A4GNT (11735810_at) / Fold change /veh A4GNT (11735810_at) / RFU PRB3 (11715151_x_at) / Fold change /veh PRB3 (11715151_x_at) / RFU TUBB4B (11761932_at) / Fold change /veh TUBB4B (11761932_at) / RFU CAPN14 (11732068_a_at) / Fold change /veh CAPN14 (11732068_a_at) / RFU TMCC2 (11721928_a_at) / Fold change /veh TMCC2 (11721928_a_at) / RFU IRGQ (11745062_a_at) / Fold change /veh IRGQ (11745062_a_at) / RFU FAM174B (11720279_a_at) / Fold change /veh FAM174B (11720279_a_at) / RFU TMPRSS4 (11748680_a_at) / Fold change /veh TMPRSS4 (11748680_a_at) / RFU FAM212B (11763350_a_at) / Fold change /veh FAM212B (11763350_a_at) / RFU PLEKHG5 (11743358_a_at) / Fold change /veh PLEKHG5 (11743358_a_at) / RFU ZSCAN30 (11745921_a_at) / Fold change /veh ZSCAN30 (11745921_a_at) / RFU CMKLR1 (11741424_a_at) / Fold change /veh CMKLR1 (11741424_a_at) / RFU LOC101060620 /// MAPK8IP1 (11723275_at) / Fold change /veh LOC101060620 /// MAPK8IP1 (11723275_at) / RFU SPTSSB (11747773_x_at) / Fold change /veh SPTSSB (11747773_x_at) / RFU PRSS12 (11739890_at) / Fold change /veh PRSS12 (11739890_at) / RFU BIN1 (11741810_x_at) / Fold change /veh BIN1 (11741810_x_at) / RFU WNT11 (11732464_a_at) / Fold change /veh WNT11 (11732464_a_at) / RFU C10orf10 (11716521_a_at) / Fold change /veh C10orf10 (11716521_a_at) / RFU C5orf56 (11738089_at) / Fold change /veh C5orf56 (11738089_at) / RFU CYB561 (11721691_x_at) / Fold change /veh CYB561 (11721691_x_at) / RFU ANKRD19P (11752326_a_at) / Fold change /veh ANKRD19P (11752326_a_at) / RFU OR2T12 /// OR2T33 /// OR2T8 (11738714_s_at) / Fold change /veh OR2T12 /// OR2T33 /// OR2T8 (11738714_s_at) / RFU VCAN (11748164_a_at) / Fold change /veh VCAN (11748164_a_at) / RFU JSRP1 (11732532_at) / Fold change /veh JSRP1 (11732532_at) / RFU KRTAP10-11 (11738290_x_at) / Fold change /veh KRTAP10-11 (11738290_x_at) / RFU MYO3A (11730013_a_at) / Fold change /veh MYO3A (11730013_a_at) / RFU EBF3 (11725865_a_at) / Fold change /veh EBF3 (11725865_a_at) / RFU CAMK2N1 (11719241_x_at) / Fold change /veh CAMK2N1 (11719241_x_at) / RFU C5orf56 (11738088_a_at) / Fold change /veh C5orf56 (11738088_a_at) / RFU OLFML3 (11715873_a_at) / Fold change /veh OLFML3 (11715873_a_at) / RFU LOC100653217 /// NTM (11731650_a_at) / Fold change /veh LOC100653217 /// NTM (11731650_a_at) / RFU MAPK11 (11762145_a_at) / Fold change /veh MAPK11 (11762145_a_at) / RFU FIZ1 (11724087_x_at) / Fold change /veh FIZ1 (11724087_x_at) / RFU OASL (11726364_x_at) / Fold change /veh OASL (11726364_x_at) / RFU SOX15 (11748057_x_at) / Fold change /veh SOX15 (11748057_x_at) / RFU CD79A (11719716_a_at) / Fold change /veh CD79A (11719716_a_at) / RFU HIST1H1D (11736915_at) / Fold change /veh HIST1H1D (11736915_at) / RFU CASKIN2 (11723855_a_at) / Fold change /veh CASKIN2 (11723855_a_at) / RFU LOC730098 (11760151_x_at) / Fold change /veh LOC730098 (11760151_x_at) / RFU OR4N2 (11742367_at) / Fold change /veh OR4N2 (11742367_at) / RFU PRRT2 (11749266_a_at) / Fold change /veh PRRT2 (11749266_a_at) / RFU SNX32 (11753110_a_at) / Fold change /veh SNX32 (11753110_a_at) / RFU CDHR5 (11726645_a_at) / Fold change /veh CDHR5 (11726645_a_at) / RFU RCAN1 (11760418_a_at) / Fold change /veh RCAN1 (11760418_a_at) / RFU FAM167A (11723789_a_at) / Fold change /veh FAM167A (11723789_a_at) / RFU FAM26E (11764081_at) / Fold change /veh FAM26E (11764081_at) / RFU ISYNA1 (11749810_s_at) / Fold change /veh ISYNA1 (11749810_s_at) / RFU ACY1 (11761880_at) / Fold change /veh ACY1 (11761880_at) / RFU 11764098_at / Fold change /veh 11764098_at / RFU SAMD14 (11745864_x_at) / Fold change /veh SAMD14 (11745864_x_at) / RFU NPB (11741838_a_at) / Fold change /veh NPB (11741838_a_at) / RFU TMPRSS6 (11731388_a_at) / Fold change /veh TMPRSS6 (11731388_a_at) / RFU KRTAP10-2 (11738614_at) / Fold change /veh KRTAP10-2 (11738614_at) / RFU ARHGAP8 /// PRR5-ARHGAP8 (11727945_x_at) / Fold change /veh ARHGAP8 /// PRR5-ARHGAP8 (11727945_x_at) / RFU KRTAP5-7 /// NADSYN1 (11734609_at) / Fold change /veh KRTAP5-7 /// NADSYN1 (11734609_at) / RFU RASL12 (11751679_a_at) / Fold change /veh RASL12 (11751679_a_at) / RFU CDKN2B (11736163_a_at) / Fold change /veh CDKN2B (11736163_a_at) / RFU PRF1 (11729649_at) / Fold change /veh PRF1 (11729649_at) / RFU, ZNF638 /// ZNF638-IT1 / Fold change vs veh, ZNF638 /// ZNF638-IT1 / RFU, PANK3 / Fold change vs veh, PANK3 / RFU, SH3YL1 / Fold change vs veh, SH3YL1 / RFU, ZEB2 / Fold change vs veh, ZEB2 / RFU, NRIP1 / Fold change vs veh, NRIP1 / RFU, PTTG1IP / Fold change vs veh, PTTG1IP / RFU, CAPN2 / Fold change vs veh, CAPN2 / RFU, MED14 / Fold change vs veh, MED14 / RFU, SNORA58 / Fold change vs veh, SNORA58 / RFU, C1orf63 / Fold change vs veh, C1orf63 / RFU, LRRFIP1 / Fold change vs veh, LRRFIP1 / RFU, NDUFAF7 / Fold change vs veh, NDUFAF7 / RFU, SLC12A2 / Fold change vs veh, SLC12A2 / RFU, IBTK / Fold change vs veh, IBTK / RFU, ESF1 / Fold change vs veh, ESF1 / Fold change vs veh, TMEM50B / RFU, TAOK1 / Fold change vs veh, TAOK1 / RFU, ACBD3 / Fold change vs veh, ACBD3 / RFU, TMA16 / Fold change vs veh, TMA16 / RFU, RWDD3 / Fold change vs veh, RWDD3 / RFU, BCAT1 / Fold change vs veh, BCAT1 / RFU, EDEM3 / Fold change vs veh, EDEM3 / RFU, TMEM33 / Fold change vs veh, TMEM33 / RFU, WDR75 / Fold change vs veh, WDR75 / RFU, AHCTF1 / Fold change vs veh, AHCTF1 / RFU, TFRC / Fold change vs veh, TFRC / RFU, ZDHHC17 / Fold change vs veh, ZDHHC17 / RFU, NOM1 / Fold change vs veh, NOM1 / RFU, ARL8B / Fold change vs veh, ARL8B / RFU, ZBTB11 / Fold change vs veh, ZBTB11 / RFU, TAMM41 / Fold change vs veh, TAMM41 / RFU, KIAA1704 /// LOC100996395 / Fold change vs veh, KIAA1704 /// LOC100996395 / RFU, ING1 / Fold change vs veh, ING1 / RFU, TRMT61B / Fold change vs veh, TRMT61B / RFU, FUBP3 / Fold change vs veh, FUBP3 / RFU, TP53 / Fold change vs veh, TP53 / RFU, TNKS2 / Fold change vs veh, TNKS2 / RFU, ZFP14 / Fold change vs veh, ZFP14 / RFU, ACTR2 / Fold change vs veh, ACTR2 / RFU, PPP3R1 / Fold change vs veh, PPP3R1 / RFU, PIK3R1 / Fold change vs veh, PIK3R1 / RFU, HNRNPA1 / Fold change vs veh, HNRNPA1 / RFU, RNF170 / Fold change vs veh, RNF170 / RFU, ZNF28 / Fold change vs veh, ZNF28 / RFU, RNGTT / Fold change vs veh, RNGTT / RFU, OGT / Fold change vs veh, OGT / RFU, BRD1 / Fold change vs veh, BRD1 / RFU, MARS / Fold change vs veh, MARS / RFU, ZNF655 / Fold change vs veh, ZNF655 / RFU, FAHD1 / Fold change vs veh, FAHD1 / RFU, BDP1 / Fold change vs veh, BDP1 / RFU, LRRCC1 / Fold change vs veh, LRRCC1 / RFU, ARID1A / Fold change vs veh, ARID1A / RFU, ZNF146 / Fold change vs veh, ZNF146 / RFU, ZNF330 / Fold change vs veh, ZNF330 / RFU, GPN3 / Fold change vs veh, GPN3 / RFU, C9orf123 / Fold change vs veh, C9orf123 / RFU, N4BP2L2 / Fold change vs veh, N4BP2L2 / RFU, ARFIP1 / Fold change vs veh, ARFIP1 / RFU, FAM179B / Fold change vs veh, FAM179B / RFU, BCL10 / Fold change vs veh, BCL10 / RFU, UHRF1BP1L / Fold change vs veh, UHRF1BP1L / RFU, BET1 / Fold change vs veh, BET1 / RFU, CNOT2 / Fold change vs veh, CNOT2 / RFU, ZNF268 / Fold change vs veh, ZNF268 / Fold change vs veh, ZNF507 / RFU, DGCR2 / Fold change vs veh, DGCR2 / RFU, WDSUB1 / Fold change vs veh, WDSUB1 / Fold change vs veh, HSP90B1 /// MIR3652 / RFU, ADSS / Fold change vs veh, ADSS / RFU, GK / Fold change vs veh, GK / RFU, ZNF148 / Fold change vs veh, ZNF148 / RFU, TAF9 / Fold change vs veh, TAF9 / RFU, SLC1A5 / Fold change vs veh, SLC1A5 / RFU, SLMO2 / Fold change vs veh, SLMO2 / RFU, ABCC4 / Fold change vs veh, ABCC4 / RFU, LOC101060439 /// RAP1B / Fold change vs veh, LOC101060439 /// RAP1B / RFU, RFX7 / Fold change vs veh, RFX7 / RFU, GTPBP10 / Fold change vs veh, GTPBP10 / RFU, CNEP1R1 / Fold change vs veh, CNEP1R1 / RFU, BIVM-ERCC5 /// ERCC5 / Fold change vs veh, BIVM-ERCC5 /// ERCC5 / RFU, ILF3 / Fold change vs veh, ILF3 / RFU 11762660_at / Fold change /veh 11762660_at / RFU VCAN (11757783_s_at) / Fold change /veh VCAN (11757783_s_at) / RFU DDX43 (11728927_at) / Fold change /veh DDX43 (11728927_at) / RFU KRT8 (11758188_x_at) / Fold change /veh KRT8 (11758188_x_at) / RFU NKD1 (11759106_at) / Fold change /veh NKD1 (11759106_at) / RFU SRD5A1 (11742802_a_at) / Fold change /veh SRD5A1 (11742802_a_at) / RFU TPSAB1 /// TPSB2 (11721975_s_at) / Fold change /veh TPSAB1 /// TPSB2 (11721975_s_at) / RFU GSTM3 (11746129_a_at) / Fold change /veh GSTM3 (11746129_a_at) / RFU IL23R (11737362_x_at) / Fold change /veh IL23R (11737362_x_at) / RFU TMEM51 (11727254_a_at) / Fold change /veh TMEM51 (11727254_a_at) / RFU PIWIL2 (11732686_x_at) / Fold change /veh PIWIL2 (11732686_x_at) / RFU ORM1 (11744905_x_at) / Fold change /veh ORM1 (11744905_x_at) / RFU CCDC152 (11743942_at) / Fold change /veh CCDC152 (11743942_at) / RFU ECM1 (11717891_a_at) / Fold change /veh ECM1 (11717891_a_at) / RFU IL23R (11748794_a_at) / Fold change /veh IL23R (11748794_a_at) / RFU TNFAIP8L3 (11732012_x_at) / Fold change /veh TNFAIP8L3 (11732012_x_at) / RFU MBOAT4 (11741988_at) / Fold change /veh MBOAT4 (11741988_at) / RFU 11764193_at / Fold change /veh 11764193_at / RFU TMEM53 (11763286_at) / Fold change /veh TMEM53 (11763286_at) / RFU MAGEB2 (11727129_at) / Fold change /veh MAGEB2 (11727129_at) / RFU TMEM200A (11744735_a_at) / Fold change /veh TMEM200A (11744735_a_at) / RFU CCDC152 (11751479_a_at) / Fold change /veh CCDC152 (11751479_a_at) / RFU FAM211A (11726209_a_at) / Fold change /veh FAM211A (11726209_a_at) / RFU RGS16 (11746705_a_at) / Fold change /veh RGS16 (11746705_a_at) / RFU VCAN (11755009_s_at) / Fold change /veh VCAN (11755009_s_at) / RFU RHOB (11743442_s_at) / Fold change /veh RHOB (11743442_s_at) / RFU RGS16 (11720943_a_at) / Fold change /veh RGS16 (11720943_a_at) / RFU RGS16 (11720944_at) / Fold change /veh RGS16 (11720944_at) / RFU, VPS4B / Fold change vs veh, VPS4B / RFU, CREB1 / Fold change vs veh, CREB1 / RFU, DNAJC13 / Fold change vs veh, DNAJC13 / RFU, GNAQ / Fold change vs veh, GNAQ / RFU, CDK5R1 / Fold change vs veh, CDK5R1 / RFU, ZRANB3 / Fold change vs veh, ZRANB3 / RFU, CUL4A / Fold change vs veh, CUL4A / RFU, CCNY / Fold change vs veh, CCNY / RFU, UFL1 / Fold change vs veh, UFL1 / RFU, COG3 / Fold change vs veh, COG3 / RFU, DIAPH2 / Fold change vs veh, DIAPH2 / RFU, SKA2 / Fold change vs veh, SKA2 / RFU, AFF3 / Fold change vs veh, AFF3 / RFU, LMF1 / Fold change vs veh, LMF1 / RFU, IPO11 / Fold change vs veh, IPO11 / RFU, DFFB / Fold change vs veh, DFFB / RFU, FOXP1 / Fold change vs veh, FOXP1 / RFU, CARD8 / Fold change vs veh, CARD8 / RFU, STRN3 / Fold change vs veh, STRN3 / RFU, ADK / Fold change vs veh, ADK / RFU, RASSF2 / Fold change vs veh, RASSF2 / RFU, WIPF1 / Fold change vs veh, WIPF1 / RFU, LARP1B / Fold change vs veh, LARP1B / RFU, RASA1 / Fold change vs veh, RASA1 / RFU, RB1 / Fold change vs veh, RB1 / RFU, PPFIA1 / Fold change vs veh, PPFIA1 / RFU, MAT2A / Fold change vs veh, MAT2A / RFU, CCT5 / Fold change vs veh, CCT5 / RFU, WDR92 / Fold change vs veh, WDR92 / RFU, CUX1 / Fold change vs veh, CUX1 / RFU, TTC7A / Fold change vs veh, TTC7A / RFU, TMEM135 / Fold change vs veh, TMEM135 / RFU, DEPTOR / Fold change vs veh, DEPTOR / RFU, CPM / Fold change vs veh, CPM / RFU, DNAJB6 / Fold change vs veh, DNAJB6 / RFU, CACNA2D3 / Fold change vs veh, CACNA2D3 / RFU, DTX4 / Fold change vs veh, DTX4 / RFU, TFCP2 / Fold change vs veh, TFCP2 / RFU, GMCL1 /// GMCL1P1 / Fold change vs veh, GMCL1 /// GMCL1P1 / RFU, AEBP2 / Fold change vs veh, AEBP2 / RFU, SNHG1 /// SNORD22 /// SNORD25 /// SNORD26 /// SNORD27 /// SNORD28 /// SNORD29 /// SNORD31 / Fold change vs veh, SNHG1 /// SNORD22 /// SNORD25 /// SNORD26 /// SNORD27 /// SNORD28 /// SNORD29 /// SNORD31 / Fold change (Aza/veh), C12orf56 (ProbeSet 11735607_a_at) / Fold change (ACY-1035/veh), C12orf56 (ProbeSet 11735607_a_at) / Fold change (Aza/veh), FGFR1OP (ProbeSet 11751329_s_at) / Fold change (ACY-1035/veh), FGFR1OP (ProbeSet 11751329_s_at) / Fold change (Aza/veh), VPS36 (ProbeSet 11739960_a_at) / Fold change (ACY-1035/veh), VPS36 (ProbeSet 11739960_a_at) / RFU SYPL1 (11715823_x_at) / Fold change /veh SYPL1 (11715823_x_at) / RFU IGFBP7 (11715501_s_at) / Fold change /veh IGFBP7 (11715501_s_at) / RFU REEP3 (11722064_at) / Fold change /veh REEP3 (11722064_at) / RFU IGLL1 (11728026_x_at) / Fold change /veh IGLL1 (11728026_x_at): dose or concentration left out as unconfirmed
Conditions: ProbeSet 11749781_s_at; LIST B

## Nc1ncn([C@@H]2O[C@H](CO)[C@@H](O)[C@H]2O)c(=O)n1 [azacitidine]
  Fold change vs veh, BCAT1: 0.85
